“And” between values parts separate entries of the source, which are not always exact repeats. Equal entries are not always repeated. Where two headings read alike, the source gives them in different places.
Columns and labels:
[1] = test system: S. aureus Mu50 (VISA) ATCC 700699; assay: Neutropenic thigh infection model; assay type: in vivo, CD-1 mice; conditions: for Log CFU/g thigh: neutropenic thigh infection, Staphylococcus aureus Mu50 ATCC 700699 (VISA), individual animals
Protocol: Neutropenic mouse thigh infection experiments were performed on female CD-1 mice (Charles River Laboratories, USA). To induce neutropenia, mice received 2 doses of cyclophosphamide on days -4 and -1 with 150 mg/kg, and 100 mg/kg delivered intraperitoneally (IP), respectively. The inoculum of the testing strain, S. aureus Mu50 (VISA) ATCC 700699, was prepared from overnight agar plate cultures. To prepare bacterial inoculums, a portion of the plate was resuspended in sterile saline and adjusted to an OD of 0.12 at 625 nm. Next, the resulted bacterial suspension was further diluted to reach an infecting inoculum of 6.0×10^5 CFU per each mouse. Mice were inoculated with 100 μL of the prepared bacterial suspension via intramuscular injection into the right rear thigh. Plate counts of the inoculum were also performed in each case to confirm inoculum concentration and the actual inoculum size was 6.9×10^5 CFU/mouse. […] Test agent was then dosed via IV administration at 2, 8, 14, and 20 hours postinfection. Beginning at 2 hours, postinfection mice were dosed with either test article or positive control antibiotic. Mice receiving test agents were dosed intravenously at 10 mL/kg. Linezolid was delivered as a subcutaneous dose. Four animals were dosed per group. One group of 4 mice were euthanized at initiation of therapy (T = 2 hours) and CFUs determined. All remaining mice were euthanized at 26 hours postinfection. At termination, thighs were aseptically excised, weighed, and homogenized to a uniform consistency in 2 mL of sterile saline. The homogenate was serially diluted and plated on bacterial growth media. The CFUs were enumerated after overnight incubation.

CHO-K1 cells = assay type: cell-based, hamster; conditions: for % Micronucleated cells / Micronucleus Test Result: 4 hours, CHO-K1; for genetic toxicity: CHO-K1 micronucleus assay, in words
Protocol: Genetic toxicity analysis of compounds was performed in an in vitro micronucleus test, according to the protocol described in Diaz and colleagues (2007), at Eurofins Panlabs (St. Charles, MO, US). Micronucleated cells and micronuclei were enumerated by the use of high-content fluorescent cell imaging. The assay was performed on CHO-K1 cells. […] Experiments were performed in 2 biological replicates. All cell lines were tested as being negative for Mycoplasma contamination.

[2] = test system: S. aureus USA300 (MRSA) BAA1556, S. aureus (VRSA) ECL2963646, S. aureus Mu50 (VISA) ATCC 700699; assay: S. aureus dermal infection model; assay type: in vivo, ICR mice; conditions: for Log CFU/Skin: 2% treatment, individual animals; for antibacterial activity after topical application: mouse skin infection, ointment twice daily, MRSA, VISA, VRSA, comparable to mupirocin, in words
Protocol: The testing strains, S. aureus USA300 (MRSA) BAA1556, S. aureus (VRSA) ECL2963646, and S. aureus Mu50 (VISA) ATCC 700699 were obtained from frozen stocks and thawed at room temperature. Next, an aliquot of 0.2 mL from each stock was transferred to 20 mL BHI broth and incubated at 37 °C with shaking (120 rpm) for 8 hours. Cells in 20 mL culture were pelleted by centrifugation, 3,500g for 15 minutes, and then resuspended in 10 mL cold PBS, then cells were diluted in PBS to obtain the inoculum sizes of 1×10^5 or 1× 10^6 CFU/mL, based on the testing strain’s virulence. In all cases, the actual colony counts were determined by plating dilutions in at least 3 replicates onto MHBII agar plates followed by 24 hours’ incubation and colony counting.
For dermal infections, groups of 5 female ICR mice weighing 24 ± 4 g, provided by BioLasco Taiwan (under a Charles River Laboratories Technology Licensee), were used. Animals were acclimated for 3 days prior to use and were confirmed to be in good health. Prior to infection, animals were anesthetized with etomidate-lipuro emulsion (20 mg /10 mL) at 20 mg/kg by IV injection, and then the fur on the back was removed by an electric shaver, and the epidermal layer was disrupted with an abrasive paper according to the protocol developed by Kugelberg and colleagues. Mice were inoculated topically on the wound area with testing strain suspension, 5 μL/mouse. The target inoculation densities were 1×10^5 or 1× 10^6 CFU/mL, based on the corresponding strain’s virulence. Following infection, animals were housed separately. […] Test articles were administered topically (20 μL/mouse) twice daily. One no-treatment group was euthanized at 1 hour after infection for initial bacterial counts, and the other treatment groups were dosed twice daily with the test compounds and sacrificed either at 25 hours or at 73 hours postinfection. Animals were euthanized with CO2 asphyxiation and the infected skin, a 2 cm^2 area, was excised. The skin samples of the wound infection (around 2 cm^2 areas) were then homogenized in 1 mL PBS (pH 7.4) with a polytron homogenizer. A 0.1 mL aliquot of each homogenate was used for serial 10-fold dilutions and plated onto MHBII agar plates for bacterial enumeration. Statistical significance (P <0.05) was assessed with 1-way ANOVA followed by Dunnett’s method. A significant (P <0.05) decrease in the bacterial counts of the treated animals compared with the vehicle control group was considered significant antimicrobial activity.

[3] = test system: S. aureus ATCC 700699 and S. aureus ATCC 43300; assay: Spontaneous frequency-of-resistance assay; assay type: cell-based; conditions: for mutant prevention concentration (MPC): S. aureus ATCC 700699 (VISA), estimate
Protocol: Prior to plating, bacteria were grown overnight in MHBII medium at 37 °C, 250 rpm, collected by centrifugation, and washed once in equal volumes of MHBII broth. From this concentrated cell suspension (250 μL), approximately 10^10 cells were then plated to each MHBII agarose plates. […] All experiments were performed in at least 3 replicates. Plates were grown at 37 °C for 72 hours. Total CFUs were determined simultaneously in each experiment by plating appropriate dilutions to antibiotic-free MHBII agar plates. Finally, resistance frequencies for each strain were calculated by dividing the number of colonies formed after a 72-hour incubation at 37 °C by the initial viable cell count.

[4] = Staphylococcus aureus ECL 2963646 (VRSA)
[5] = Staphylococcus aureus Mu50 ATCC 700699 (VISA)
[6] = Staphylococcus aureus USA300 (MRSA)
[7] = Staphylococcus aureus (MRSA) ATCC 43300, 2xMIC
[8] = Staphylococcus aureus (MRSA) ATCC 43300, 4xMIC
[9] = Staphylococcus aureus (MRSA) ATCC 43300, 8xMIC
[10] = Staphylococcus aureus (VISA) ATCC 700699, 2xMIC
[11] = Staphylococcus aureus (VISA) ATCC 700699, 4xMIC
[12] = Staphylococcus aureus (VISA) ATCC 700699, 8xMIC

SMILES	Log CFU/g thigh ([1]; 50 mg/kg)	% Micronucleated cells (CHO-K1 cells; 1.3 x 10^-4 M)	Micronucleus Test Result (CHO-K1 cells; 1.3 x 10^-4 M)	% Micronucleated cells (CHO-K1 cells; 2.5 x 10^-4 M)	Micronucleus Test Result (CHO-K1 cells; 2.5 x 10^-4 M)	% Micronucleated cells (CHO-K1 cells; 3.1 x 10^-5 M)	Micronucleus Test Result (CHO-K1 cells; 3.1 x 10^-5 M)	% Micronucleated cells (CHO-K1 cells; 5.0 x 10^-4 M)	Micronucleus Test Result (CHO-K1 cells; 5.0 x 10^-4 M)	% Micronucleated cells (CHO-K1 cells; 6.2 x 10^-5 M)	Micronucleus Test Result (CHO-K1 cells; 6.2 x 10^-5 M)	genetic toxicity (CHO-K1 cells)	Log CFU/Skin [2, 4]	Log CFU/Skin [2, 5]	Log CFU/Skin [2, 6]	antibacterial activity after topical application [2]	mutant prevention concentration (MPC) [3]	Spontaneous frequency-of-resistance (replicates) [3, 7]	Spontaneous frequency-of-resistance (replicates) [3, 8]	Spontaneous frequency-of-resistance (replicates) [3, 9]	further results
CC(=O)NC[C@H]1CN(c2ccc(N3CCOCC3)c(F)c2)C(=O)O1 [Linezolid]	5.65 Log CFU/g thigh and 6.12 Log CFU/g thigh and 4.95 Log CFU/g thigh																				
Cc1[nH]c(C(=O)Nc2nc3ccc(C(=O)O)cc3s2)c(Cl)c1Cl [ULD1]	5.41 Log CFU/g thigh and 5.69 Log CFU/g thigh	0.32%	- (A negative test (-) result indicates P > 0.05 by t-test and percentage of micronucleated cells less than 2-fold higher than the background level)	0.56%	- (A negative test (-) result indicates P > 0.05 by t-test and percentage of micronucleated cells less than 2-fold higher than the background level)	0.47%	- (A negative test (-) result indicates P > 0.05 by t-test and percentage of micronucleated cells less than 2-fold higher than the background level)	0.57%	- (A negative test (-) result indicates P > 0.05 by t-test and percentage of micronucleated cells less than 2-fold higher than the background level)	0.36%	- (A negative test (-) result indicates P > 0.05 by t-test and percentage of micronucleated cells less than 2-fold higher than the background level)	No genetic toxicity	5.77 Log CFU/Skin and 5.81 Log CFU/Skin and 5.92 Log CFU/Skin and 6.59 Log CFU/Skin and 5.61 Log CFU/Skin	5 Log CFU/Skin and 5.57 Log CFU/Skin and 5.65 Log CFU/Skin and 4.91 Log CFU/Skin and 5.98 Log CFU/Skin	4.61 Log CFU/Skin and 3.68 Log CFU/Skin and 4.97 Log CFU/Skin and 3.75 Log CFU/Skin and 4.86 Log CFU/Skin	potent antibacterial activity	0.16 µg/mL	2e-9 and 2.769e-9 and 5.333e-10 and 1.1e-9 and 1.263e-9 and 2.587e-9 and 2.787e-9 and 2.50E-09 and 3.14E-09 and 4.80E-09	9.286e-10 and 7.692e-10 and 1.333e-10 and 5e-10 and 9.868e-10 and 1.045e-9 and 7.377e-10 and 1.30E-09 and 9.54E-10 and 1.09E-08 and 7.14E-11	1.00E-12	Spontaneous frequency-of-resistance (replicates) [3, 10]: 2.06e-9 and 1.815e-9 and 2.326e-9 and 1.86e-9 and 1.40E-09 and 7.33E-10 and 2.00E-09 and 1.64E-09 and 3.594e-9 and 2.426e-9; Spontaneous frequency-of-resistance (replicates) [3, 11]: 1.00E-12 and 3.109e-10 and 2.252e-10 and 3.243e-10 and 3.9801e-10 and 2.304e-10 and 2.871e-10 and 1.676e-10; Spontaneous frequency-of-resistance (replicates) [3, 12]: 1.00E-12; resistant variants detected ([3]; exposure at 8-fold the wild-type MIC, S. aureus, in words): no resistant variants of S. aureus have been detected; antibacterial activity after intravenous administration ([1]; neutropenic murine thigh infection, S. aureus VISA, comparable to linezolid, in words): potent antibacterial activity; Log CFU/g thigh ([1]; 10 mg/kg): 7.54 Log CFU/g thigh and 7.91 Log CFU/g thigh and 8.09 Log CFU/g thigh and 8.46 Log CFU/g thigh; Log CFU/g thigh ([1]; 25 mg/kg): 6.73 Log CFU/g thigh and 6.88 Log CFU/g thigh and 7.28 Log CFU/g thigh and 6.95 Log CFU/g thigh
Cc1[nH]c(C(=O)Nc2nc3c(OCc4ccccc4)cc(C(=O)O)cc3s2)c(Cl)c1Cl [ULD2]		1.07%	- (A negative test (-) result indicates P > 0.05 by t-test and percentage of micronucleated cells less than 2-fold higher than the background level)	1.36%	- (A negative test (-) result indicates P > 0.05 by t-test and percentage of micronucleated cells less than 2-fold higher than the background level)	0.57%	- (A negative test (-) result indicates P > 0.05 by t-test and percentage of micronucleated cells less than 2-fold higher than the background level)	0.78%	- (A negative test (-) result indicates P > 0.05 by t-test and percentage of micronucleated cells less than 2-fold higher than the background level)	0.49%	- (A negative test (-) result indicates P > 0.05 by t-test and percentage of micronucleated cells less than 2-fold higher than the background level)	No genetic toxicity	5.96 Log CFU/Skin and 5.93 Log CFU/Skin and 5.51 Log CFU/Skin and 5.91 Log CFU/Skin and 5.45 Log CFU/Skin	4.76 Log CFU/Skin and 5.44 Log CFU/Skin and 5.93 Log CFU/Skin and 4.96 Log CFU/Skin and 5.73 Log CFU/Skin	4.14 Log CFU/Skin and 4.81 Log CFU/Skin and 5.33 Log CFU/Skin and 6.64 Log CFU/Skin and 5.97 Log CFU/Skin	potent antibacterial activity	0.08 µg/mL	1.00E-12 and 1.529e-10 and 1.99e-10 and 7.692e-11 and 9.00E-10 and 1.80E-09 and 1.43E-10	5.00E-11 and 1.67E-10 and 7.14E-11 and 1.00E-12	1.00E-12	resistant mutants emerged ([3]; 4×10^12 S. aureus ATCC 700699 (VISA) cells, 4 times the wild-type MIC, in words): no ULD2 resistant mutants have emerged; Spontaneous frequency-of-resistance (replicates) [3, 10]: 1.00E-12 and 8.77E-11; Spontaneous frequency-of-resistance (replicates) [3, 11]: 1.00E-12; Spontaneous frequency-of-resistance (replicates) [3, 12]: 1.00E-12
